Experiments:
[1] = system: bloodstream form of T. brucei strain Lister 427; test: T. b. brucei 427 growth inhibition assay (LILiT, Alamar Blue); format: cell-based; conditions: Trypanosoma brucei, 72 h, read-out: EC50 (µM) in vitro parasite killing of bloodstream form T. brucei Lister 427 (Tbb EC50), 72 h, Alamar Blue
Protocol: The ‘in vitro’ parasite killing assay used the BSF of the non-human pathogenic subspecies T. b. brucei, strain Lister 427, cultured in HMI-9 medium containing 10% foetal bovine serum. A second cell line, T. b. brucei GVR35-Luc2 which constitutively expresses firefly luciferase was grown in Modified HMI-9 plus 20% foetal calf serum supplemented with 20% Serum Plus (Sigma) and 0.15 μg mL^−1 puromycin. Both strains of trypanosomes were cultured in T-25 vented cap flasks at 37 °C and 5% CO2.
The ‘in vitro’ parasite killing assay used the bloodstream-form of the non-human pathogenic subspecies T. b. brucei, strain Lister 427 (a gift from Professor Keith Matthews) which was cultured in HMI-9 medium containing 10% fetal bovine serum (FBS). A second cell line, T. b. brucei GVR35-Luc2 which constitutively expresses firefly luciferase (5) was grown in Modified HMI-9 plus 20% fetal calf serum (FCS) supplemented with 20% Serum Plus (Sigma) and 0.15 μg/ml puromycin as described previously (5). Both strains of trypanosomes were cultured in T-25 vented cap flasks at 37 °C and 5% CO2.
Growth inhibition tests of bloodstream-form T. b. brucei Lister 427 were carried out using the LILiT (long incubation low inoculation test) method (6). The parasites were cultured in complete HMI-9 medium containing 10% FBS in 96-well plates (Greiner Inc.) with approximately 2500 trypanosomes per well. A 3-fold dilution series (in the range from 45 µM – 0.020 µM) of the inhibitor compounds were prepared in the plate; the maximal concentration of DMSO was 0.45%. After 72 hours of incubation at 37 °C and 5% CO2, 50 µl Alamar Blue (0.2% diluted with Dulbecco’s-phosphate buffered saline (D-PBS, Sigma) was added to each well and plates were incubated at 37 °C and 5% CO2 for 4 hours. Fluorescence was read on the BMG multiplate reader using an excitation wavelength of 530 nm and an emission wavelength of 590 nm.

[2] = target: T1, T. brucei phosphofructokinase (TbPFK) (Trypanosoma brucei brucei, UniProt O15648); test: ADP-Glo assay for measuring PFK inhibition; format: biochemical; conditions: ADP-Glo; mean ± SD; read-out: IC50 (µM) for inhibition of T. brucei phosphofructokinase (PFK IC50)
T1 construct: made in house; host or cells: Escherichia coli C41 (pET28a, codon optimised gene)
T1 sequence (O15648 1-487): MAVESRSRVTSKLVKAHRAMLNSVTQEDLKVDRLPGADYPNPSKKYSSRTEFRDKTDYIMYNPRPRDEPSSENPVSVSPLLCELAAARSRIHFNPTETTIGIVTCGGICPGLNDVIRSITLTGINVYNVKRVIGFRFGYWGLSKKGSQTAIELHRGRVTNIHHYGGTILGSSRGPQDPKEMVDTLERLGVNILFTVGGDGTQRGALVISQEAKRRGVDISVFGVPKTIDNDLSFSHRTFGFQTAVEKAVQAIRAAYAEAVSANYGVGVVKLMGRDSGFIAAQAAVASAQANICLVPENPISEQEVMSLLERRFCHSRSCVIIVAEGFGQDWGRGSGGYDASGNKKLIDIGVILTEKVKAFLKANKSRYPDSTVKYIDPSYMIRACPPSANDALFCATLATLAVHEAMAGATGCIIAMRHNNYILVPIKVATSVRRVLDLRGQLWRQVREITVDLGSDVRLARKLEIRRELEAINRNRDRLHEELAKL
Protocol: Parasite enzyme kinetic data were measured using N-terminally His6-tagged TbPFK expressed in Escherichia coli C41 cells, using a codon optimised gene inserted in a pET28a vector (Supplementary Methods 1). Recombinant human PFKs were expressed in PFK-deficient Saccharomyces cerevisiae. PFK enzyme inhibition was measured using an ADP-Glo^TM assay (Promega) in a 96-well plate format (Supplementary Methods 2.1), using a Spectramax© M5 Multimode Plate Reader to measure luminescence values which were converted to ADP concentrations. IC50 values were determined using a sigmoidal curve fitting algorithm in Kaleidagraph 4 (Supplementary Fig. 1). Mode of action studies were carried out using a linked enzyme assay coupling the forward reaction of TbPFK to the M1 isoform of human pyruvate kinase followed by lactate dehydrogenase. The change in UV absorbance at 340 nm resulting from the conversion of NADH to NAD^+ was measured at 25 °C in ‘kinetic mode’ on a Spectramax© M5 Multimode plate reader. Initial velocities were plotted against substrate concentration to give curves showing non-competitive inhibition (Supplementary Fig. 2). An alternative linked enzyme assay was developed to control for the potential inhibitory activity of ATP on human PFK (Supplementary Methods 2.3).
The ADP-Glo™ end-point assay kit manufactured by Promega (cat. No. V9102) was used to measure ADP produced in the phosphofructokinase reaction:
Following this kinase reaction, the addition of a reagent results in any unused background ATP being removed and the reaction is sequestered. A second reagent is then added to convert the remaining ADP to ATP which is coupled to the luciferase/luciferin reaction to produce light. ‘Ultrapure’ ATP and ADP from Promega were used to reduce background noise. All reagents additional to those provided in the Promega ADP-Glo™ kit were purchased from Sigma-Aldrich.
The assay buffer comprised 50 mM triethanolamine (TEA), 10 mM MgCl2, 5 mM KCl, 0.1% w/v bovine serum albumin (BSA), 0.005% Tween-20, 1% DMSO, pH 7.4. A 3-fold serial dilution of 250x inhibitor stocks was carried out in 100% DMSO. 2 µl of these dilutions was added to 198 µl assay buffer and mixed well using a multichannel pipette. […] Concentration ranges of inhibitor compounds were 40 - 0.006 µM (final concentration, 1% DMSO). The PFK reaction in the presence of inhibitor was carried out using 10 µl of 1 µg/ml PFK (final concentration 0.4 µg/ml) which was added to 10 µl of the 1% DMSO inhibitor compound serial dilutions in a white, non-binding 96-well plate (Greiner BioOne 655904). CTCB-001 was used as a positive control at a final concentration of 5 µM. Assay buffer containing 1% DMSO was added instead of inhibitor compound for the negative control. The protein/inhibitor mixture was incubated for 10 minutes at room temperature (RT). The kinase reaction was started by adding a 5x ATP/F6P stock in assay buffer (final concentrations 0.5 mM F6P and 0.1 mM ATP). Plates were then sealed, centrifuged at 560 x g for 30 seconds and incubated at RT for 30 minutes. 25 µl of ‘ADP-Glo™ Reagent’ was then added to each well, mixed using a multichannel pipette and incubated at room temperature for 40 minutes. 50 µl of ‘Kinase Detection Reagent’ was added and incubated for 50 minutes at RT. The luminescence was recorded using a Spectramax© M5 Multi-mode Plate Reader (Molecular Devices) in single-point mode, with an integration time of 750 milliseconds. The luminescence values were converted to ADP concentration using a standard calibration curve for ADP. The resulting ADP concentrations were plotted as a function of inhibitor compound concentration using Kaleidagraph 4.0 software. The data were analysed using non-linear regression and a sigmoidal curve was fitted (Supplementary Figure 1) to determine the IC50. Kaleidagraph 4.0 uses the Levenberg-Marquardt algorithm in an iterative procedure to fit non-linear curves. […] The slope of the curve at the midpoint (m4) was set to 1.

`Clc1ccc(Cn2ccc3cnccc32)cc1Cl` [CTCB103] showed an EC50 [1] of 7.8 ± 0.1 µM and an IC50 [2] of 0.46 ± 0.03 µM.

From publication PMC7887271, “Fast acting allosteric phosphofructokinase inhibitors block trypanosome glycolysis and cure acute African trypanosomiasis in mice” (Nature Communications, 2021)
